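Growth conditions: 96-well plates. Treatment: test compound, 48 hours, 5 concentrations. Analysis: linear interpolation between bracketing concentrations; unreached endpoints set to highest concentration. GI50 marks 50% less growth.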 Activity calls are given as the source filed them. No stated cut-off is given here; in the data, active = GI50 up to about 1.1 µM and inactive = higher. Non-standard residues stand in square brackets, D forms with d. Residues, ends and D or L forms follow the SMILES beside them. *: point of attachment. Phe(4-NO2) = N[CH](Cc1ccc([N+](=O)[O-])cc1)C(=O)O; Boc = CC(C)(C)OC(=O)*
Experiments:
Assay in all cases: DTP human tumour cell line panel, 48 h
NCI-H23 = system: NCI-H23
SF-268 = system: SF-268
U-251 = system: U-251
RXF 393 = system: RXF 393
SF-539 = system: SF-539
SW-620 = system: SW-620
MDA-MB-231 = system: MDA-MB-231
OVCAR-3 = system: OVCAR-3
A549 = system: A549
SR = system: SR
MDA-N = system: MDA-N
SK-MEL-2 = system: SK-MEL-2
DU-145 = system: DU-145
HL-60 = system: HL-60

Measured: GI50

CN1C(=O)[C@@H]2[C@@H]3c4ccccc4N[C@@H]3c3[nH]c4ccccc4c3[C@@H]2C1=O
inactive: NCI-H23 13.9 µM | SF-268 32.6 µM | U-251 23.8 µM | RXF 393 25 µM | SF-539 19 µM | SW-620 29.2 µM | MDA-MB-231 21 µM | OVCAR-3 16.6 µM | A549 22.8 µM | SR 15.8 µM | MDA-N 31.8 µM | SK-MEL-2 17.3 µM | DU-145 41.7 µM

Nc1c(Br)cc2c(c1Br)Cc1cc(Br)ccc1-2
inactive: NCI-H23 > 100 µM | SF-268 > 100 µM | U-251 > 100 µM | RXF 393 > 100 µM | SW-620 > 100 µM | MDA-MB-231 > 100 µM | OVCAR-3 > 100 µM | A549 > 100 µM | SR > 100 µM | MDA-N > 100 µM | DU-145 > 100 µM

CCSc1nc(N)c2c(-c3ccccc3)c3c(nc2n1)CCC3
inactive: NCI-H23 > 100 µM | SF-268 > 100 µM | U-251 > 100 µM | RXF 393 > 100 µM | SF-539 6.53 µM | SW-620 > 100 µM | HL-60 > 100 µM | MDA-MB-231 > 100 µM | OVCAR-3 > 100 µM | A549 4.56 µM | SR > 100 µM | MDA-N > 100 µM | DU-145 > 100 µM

C[C@]12C[C@H](O)[C@H]3[C@@H](CCC4=CC(=O)CC[C@@]43C)[C@@H]1CC[C@@H]2c1csc(-c2ccccc2)n1
inactive: NCI-H23 4.57 µM | SF-268 > 53.8 µM | U-251 24.9 µM | RXF 393 72.4 µM | SF-539 62.5 µM | SW-620 39.5 µM | MDA-MB-231 20.1 µM | OVCAR-3 > 22.4 µM | A549 11.2 µM | SR 3.21 µM | MDA-N > 80.7 µM | SK-MEL-2 > 34 µM | DU-145 > 51.6 µM

CN(C)c1ccc(C2ON=C(c3ccccc3)N2C23CC4CC(CC(C4)C2)C3)cc1 (stereo not given)
inactive: NCI-H23 > 10 µM | SF-268 > 10 µM | U-251 > 10 µM | RXF 393 > 10 µM | SF-539 > 10 µM | SW-620 > 10 µM | HL-60 9.55 µM | MDA-MB-231 > 10 µM | OVCAR-3 > 10 µM | A549 > 10 µM | SR 8.02 µM | MDA-N > 10 µM | SK-MEL-2 > 10 µM | DU-145 > 10 µM

CC(C)(Br)C(Br)CCC(C)(Br)C(Br)CO (stereo not given)
inactive: NCI-H23 > 10 µM | SF-268 > 10 µM | U-251 > 10 µM | RXF 393 > 10 µM | SF-539 > 10 µM | SW-620 > 10 µM | MDA-MB-231 > 10 µM | OVCAR-3 > 10 µM | A549 > 10 µM | MDA-N > 10 µM | DU-145 > 10 µM

O=C(N/N=C\C(F)(F)F)c1ccncc1
inactive: NCI-H23 8.36 µM | U-251 26.9 µM | RXF 393 13.9 µM | SW-620 37.8 µM | HL-60 > 100 µM | OVCAR-3 22.3 µM | SR 35.2 µM | SK-MEL-2 > 100 µM | DU-145 8.57 µM

Cc1cccc(C)c1NC(=S)N/C=C(\C#N)C(N)=O
inactive: NCI-H23 > 100 µM | SF-268 > 100 µM | U-251 > 100 µM | RXF 393 > 100 µM | SF-539 > 100 µM | SW-620 > 100 µM | MDA-MB-231 > 100 µM | OVCAR-3 > 100 µM | A549 > 100 µM | MDA-N > 100 µM | SK-MEL-2 > 100 µM | DU-145 > 100 µM

O1C2C1C1OC1C1OC1C1OC21 (stereo not given)
inactive: NCI-H23 > 100 µM | SF-268 > 100 µM | U-251 > 100 µM | MDA-MB-231 > 100 µM | A549 > 100 µM | SR > 100 µM | MDA-N > 100 µM | SK-MEL-2 > 100 µM | DU-145 > 100 µM

N/N=C1/C2CN3CCN(C2)CC1(c1ccc([N+](=O)[O-])cc1)C3
inactive: NCI-H23 > 100 µM | SF-268 > 100 µM | U-251 > 100 µM | RXF 393 > 100 µM | SF-539 > 100 µM | SW-620 > 100 µM | HL-60 > 100 µM | MDA-MB-231 > 100 µM | OVCAR-3 > 100 µM | SR 27.7 µM | MDA-N > 100 µM | SK-MEL-2 > 100 µM | DU-145 > 100 µM

COC(=O)CCC(NC(=O)OC(C)(C)C)C(=O)NC(Cc1ccc([N+](=O)[O-])cc1)C(=O)NC(CCC(=O)OC)C(=O)OC (stereo not given) (Boc-Glu(OMe)-[Phe(4-NO2)]-Glu(OMe)-OMe; configuration not given here)
inactive: NCI-H23 > 100 µM | SF-268 > 100 µM | RXF 393 > 100 µM | SF-539 43.5 µM | SW-620 > 100 µM | MDA-MB-231 > 100 µM | OVCAR-3 > 100 µM | A549 > 100 µM | SR 28.8 µM | MDA-N > 100 µM | SK-MEL-2 > 100 µM | DU-145 > 100 µM

Source: ChEMBL document CHEMBL1201862, “PubChem BioAssay data set” (2004)
